For this data set the following is noted: pressed at 2 tons for 1 minute. Here is the method: ARL X-ray powder diffractometer model X′TRA-030, Peltier detector, round standard aluminum sample holder with round zero background quartz plate (or silicon plate in the case of Form XIV) was used. The cathode is CuKα radiation, λ=1.5418 Å. Scanning parameters: Range: 2-40°2θ, continuous Scan, Rate: 3 deg/min. The accuracy of peak positions is defined as +/−0.2° due to experimental differences like instrumentations, and sample preparations.
The formulation was mixed and pressed to a tablet. The applied pressure was 2 tons for 1 minute.
The formulation is mixed and pressed to a tablet. The applied pressure is 2 tons for 1 minute.

Like-named read-outs stand apart in the source and are kept apart here.

The source of these data is patent US20120029083A1, “POLYMORPHIC FORMS OF ALISKIREN HEMIFUMARATE AND PROCESS FOR PREPARATION THEREOF” (Teva Pharmaceutical Industries, Ltd., priority 2007, published 2012).

For the molecule `COCCCOc1cc(C[C@@H](C[C@H](N)[C@@H](O)C[C@H](C(=O)NCC(C)(C)C(N)=O)C(C)C)C(C)C)ccc1OC.COCCCOc1cc(C[C@@H](C[C@H](N)[C@@H](O)C[C@H](C(=O)NCC(C)(C)C(N)=O)C(C)C)C(C)C)ccc1OC.O=C(O)/C=C/C(=O)O` [amorphous aliskiren hemifumarate, (2S,4S,5S,7S)-N-(2-Carbamoyl-2-methylpropyl)-5-amino-4-hydroxy-2,7-diisopropyl-8-[4-methoxy-3-(3-methoxypropoxy)phenyl]-octanamide hemifumarate], the “conversion of amorphous form to a crystalline phase in pressed tablet (XRPD)” value (formulation Example 67 (microcrystalline cellulose, PVP, crosspovidone, aerosil 200, Mg stearate)) is “No conversion of the amorphous Aliskiren to a crystalline phase” and the “conversion of amorphous form to a crystalline phase in pressed tablet (XRPD)” value (formulation Example 68 (lactose monohydrate, PVP, crosspovidone, Mg stearate), written in present tense) is given as “No conversion of the amorphous Aliskiren to a crystalline phase”.
